pIC50: −log10 of the molar value.

One may read the pIC50 as the IC50 on a negative log10 scale, so that one unit is a factor of ten. Read a low pIC50 as a high IC50.

The test addresses T1, human renin (Homo sapiens, UniProt P00797).
T1 sequence (P00797 67-406): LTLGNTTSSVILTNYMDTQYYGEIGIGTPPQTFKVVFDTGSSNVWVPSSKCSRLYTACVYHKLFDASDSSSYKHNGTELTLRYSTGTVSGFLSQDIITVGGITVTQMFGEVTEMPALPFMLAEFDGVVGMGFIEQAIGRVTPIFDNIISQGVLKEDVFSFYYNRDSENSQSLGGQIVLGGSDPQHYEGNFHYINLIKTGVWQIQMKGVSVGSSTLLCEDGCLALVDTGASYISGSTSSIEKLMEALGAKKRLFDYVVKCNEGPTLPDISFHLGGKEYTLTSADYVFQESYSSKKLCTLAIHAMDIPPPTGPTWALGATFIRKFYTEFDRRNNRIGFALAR
The test can be described thus: In vitro test with pure human renin. Type of test: biochemical. Particulars: human tetradecapeptide renin substrate (hTD), pH 7.4, incubated three hours at 37° C. or 4° C., angiotensin I via RIA. Here is the method: In Vitro Test with Pure Human Renin
The test is carried out in Eppendorf test tubes. The incubation mixture consists of (1) 100 μl of human renin in buffer A (0.1M sodium phosphate solution, pH 7.4, 0.1% bovine serum albumin, 0.1% sodium azide and 1 mM ethylenediaminetetraacetic acid), sufficient for a renin activity of 2-3 ng of angiotensin I/ml/hr.; (2) 145 μl of buffer A; (3) 30 μl of 10 μm human tetradecapeptide renin substrate (hTD) in 10 mM hydrochloric acid; (4) 15 μl of dimethyl sulfoxide with or without inhibitor and (5) 10 μl of a 0.03 molar solution of hydroxy- quinoline sulfate in water.
The samples are incubated for three hours at 37° C. or 4° C. in triplicate. 2×100 μl samples per experimental test tube are used in order to measure the production of angiotensin I via RIA (standard radioimmunoassay; clinincal assay solid phase kit). Cross reactivities of the antibody used in the RIA are: angiotensin I 100%; angiotensin II 0.0013%; hTD (angiotensin I-Val-Ile-His-Ser-OH) 0.09%. The production of angiotensin I is determined by the difference between the experiment at 37° C. and that at 4° C.
The following controls are carried out:
(a) Incubation of hTD samples without renin and without inhibitor at 37° C. and 4° C. The difference between these two values gives the base value of angiotensin I production.
(b) Incubation of hTD samples with renin, but without inhibitor at 37° C. and 4° C. The difference between these values gives the maximal value of angiotensin I production.
In each sample the base value of angiotensin I production is substracted from the angiotensin I production which is determined. The difference between the maximal value and the base value gives the value of the maximal substrate hydrolysis (=100%) by renin.
The results are given as IC50 values which denote that concentration of the inhibitor at which the enzymatic activity is inhibited by 50%. The IC50 values are determined from a linear regression curve from a logit-log plot.
`CN(C[C@H](O)[C@H](CC1CCCCC1)NC(=O)[C@H](Cc1c[nH]cn1)NC(=O)[C@H](Cc1ccccc1)NC(=O)OC(C)(C)C)C(=O)[C@H](Cc1c[nH]cn1)NC(=O)[C@H](Cc1ccccc1)NC(=O)OC(C)(C)C` [E]: the pIC50 was 7.52.

Compound `CC(C)(C)C(=O)C[C@@H](Cc1ccccc1)C(=O)N[C@@H](Cc1c[nH]cn1)C(=O)N[C@@H](CC1CCCCC1)[C@@H](O)CN1CCCCC1=O` [A, (S)-N-[(1S,2S)-1-(Cyclohexylmethyl)-2-hydroxy-3-(2oxopiperidino)propyl]-α-[(R)-α-(3,3-dimethyl-2-oxobutyl)hydrocinnamamido]imidazole-4-propionamide] showed a pIC50 of 7.39.

`CN(C[C@H](O)[C@H](CC1CCCCC1)NC(=O)[C@H](Cc1c[nH]cn1)NC(=O)[C@@H](CC(=O)C(C)(C)C)Cc1ccccc1)C(=O)[C@H](Cc1c[nH]cn1)NC(=O)CCc1ccccc1` [D, (S)-N-[(1S,2S)-1-(Cyclohexylmethyl)-2-hydroxy-3-[(S)-3-(imidazol-4-yl)-2-hydrocinnamamido-N-methylpropionamido]propyl]-α-[(R)-α-(3,3-dimethyl-2-oxobutyl)hydrocinnamamido]imidazole-4-propionamide] showed a pIC50 of 7.72.

As to `CN(C[C@H](O)[C@H](CC1CCCCC1)NC(=O)[C@H](Cc1c[nH]cn1)NC(=O)[C@@H](CC(=O)C(C)(C)C)Cc1ccccc1)C(=O)[C@H](Cc1c[nH]cn1)NC(=O)[C@@H](CC(=O)C(C)(C)C)Cc1ccccc1` [C], the negative logarithm of the IC50 (pIC50) is 7.55.

Take `CC(C)(C)C(=O)C[C@@H](Cc1ccccc1)C(=O)N[C@@H](Cc1c[nH]cn1)C(=O)N[C@@H](CC1CCCCC1)[C@@H](O)CN1C(=O)c2ccccc2C1=O` [G, (S)-N-[(1S,2S)-1-(Cyclohexylmethyl)-2-hydroxy-3-phthalimidopropyl]-α-[(R)-α-(3,3-dimethyl-2-oxobutyl)hydrocinnamamido]imidazole-4-propionamide]: the pIC50 is 7.70.

In the case of `CN(C[C@H](O)[C@H](CC1CCCCC1)NC(=O)[C@H](Cc1c[nH]cn1)NC(=O)[C@H](Cc1ccccc1)NC(=O)OC(C)(C)C)C(=O)[C@H](Cc1ccccc1)NC(=O)OC(C)(C)C` [F, t-Butyl [(S)-α-[[(2S,3S)-3-[(S)-2-[(S)-α-(1-t-butoxyformamido)hydrocinnamamido]-3-imidazol-4-ylpropionamido]-4-cyclohexyl-2-hydroxybutyl]methylcarbamoyl]phenethyl]carbamate], the pIC50 is 7.82.

As for “(S)-N-[(1S,2S)-1-(Cyclohexylmethyl)-3-[(S)-α-[(R)-α-(3,3-dimethyl-2-oxobutyl)hydrocinnamamido]-N-isopropylimidazol-4-propionamido]-2-hydroxypropyl]-α-[(R)-α-(3,3-dimethyl-2-oxobutyl)hydrocinnamamido]imidazole-4-propionamide”, the pIC50 was 7.39.
